Tests used:
[1] = tested on: rice (Oryza sative, variety: Koshihikari); test: Paddy field treatment (Test Example 3), crop; format: in vivo, Oryza sativa; conditions: transplanted rice two-leaf period, water surface treatment 10th day after transplantation, 1 kg active ingredient per hectare, evaluated 21st day, lower index = higher safety
In short: (§1)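 Index scores for herbicidal effect were read 21 days after treatment, higher meaning stronger effect. Treatment was a water-diluted wettable powder dropped onto flooded paddy soil at 1 kg active ingredient per hectare, 10 days after rice transplantation.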

Echinochloa spp. = test: Paddy field treatment (Test Example 3); format: in vivo, Echinochloa crusgalli; conditions: paddy pot, submerged 4 cm, dropped on water surface 10th day after transplantation, 1 kg active ingredient per hectare, evaluated 21st day
In short: as §1

[2] = tested on: wheat (Triticum aestivum); test: Upland soil treatment (Test Example 2), crop; format: in vivo; conditions: soil surface treatment next day after sowing, 1 kg active ingredient per hectare, evaluated 21st day, lower index = higher safety
In short: (§2)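 Index rating at day 21 after a single pre-emergence soil-surface application, 1 kg a.i./ha, made the day after sowing in upland soil; for crops a lower index indicates higher safety.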

soybean (Glycine max) [3] = test: Upland soil treatment (Test Example 2), crop; format: in vivo; conditions: soil surface treatment next day after sowing, 1 kg active ingredient per hectare, evaluated 21st day, lower index = higher safety
In short: as §2

Setaria viridis [4] = test: Upland field foliage treatment (Test Example 1); format: in vivo; conditions: foliage treatment 14th day after sowing, wettable powder, 1 kg active ingredient per hectare, evaluated 21st day after application
In short: (§3)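 Foliage application took place two weeks after sowing, at an active-ingredient rate of 1 kg/ha from a water-diluted wettable powder. Rating followed on the 21st day after application, using an index scale on which crop values rise as injury increases.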

Chenopodium album [5] = test: Upland field foliage treatment (Test Example 1); format: in vivo; conditions: foliage treatment 14th day after sowing, wettable powder, 1 kg active ingredient per hectare, evaluated 21st day after application
In short: as §3

Stellaria media [6] = test: Upland field foliage treatment (Test Example 1); format: in vivo; conditions: foliage treatment 14th day after sowing, wettable powder, 1 kg active ingredient per hectare, evaluated 21st day after application
In short: as §3

Digitaria adscendens [7] = test: Upland field foliage treatment (Test Example 1); format: in vivo; conditions: foliage treatment 14th day after sowing, wettable powder, 1 kg active ingredient per hectare, evaluated 21st day after application
In short: as §3

[8] = tested on: wheat (Triticum aestivum); test: Upland field foliage treatment (Test Example 1), crop; format: in vivo; conditions: foliage treatment 14th day after sowing, 1 kg active ingredient per hectare, evaluated 21st day, lower index = higher safety
In short: as §3

soybean (Glycine max) [9] = test: as above; format: in vivo; conditions: foliage treatment 14th day after sowing, 1 kg active ingredient per hectare, evaluated 21st day, lower index = higher safety
In short: as §3

Monochoria vaginalis = test: Paddy field treatment (Test Example 3); format: in vivo; conditions: paddy pot, submerged 4 cm, dropped on water surface 10th day after transplantation, 1 kg active ingredient per hectare, evaluated 21st day
In short: as §1

Scirpus juncoides = test: Paddy field treatment (Test Example 3); format: in vivo; conditions: paddy pot, submerged 4 cm, dropped on water surface 10th day after transplantation, 1 kg active ingredient per hectare, evaluated 21st day
In short: as §1

Ammannia multiflora = test: Paddy field treatment (Test Example 3); format: in vivo; conditions: paddy pot, submerged 4 cm, dropped on water surface 10th day after transplantation, 1 kg active ingredient per hectare, evaluated 21st day
In short: as §1

Setaria viridis [10] = test: Upland soil treatment (Test Example 2); format: in vivo; conditions: soil surface treatment next day after sowing, wettable powder, 1 kg active ingredient per hectare, evaluated 21st day after application
In short: as §2

Chenopodium album [11] = test: Upland soil treatment (Test Example 2); format: in vivo; conditions: soil surface treatment next day after sowing, wettable powder, 1 kg active ingredient per hectare, evaluated 21st day after application
In short: as §2

Stellaria media [12] = test: Upland soil treatment (Test Example 2); format: in vivo; conditions: soil surface treatment next day after sowing, wettable powder, 1 kg active ingredient per hectare, evaluated 21st day after application
In short: as §2

Digitaria adscendens [13] = test: Upland soil treatment (Test Example 2); format: in vivo; conditions: soil surface treatment next day after sowing, wettable powder, 1 kg active ingredient per hectare, evaluated 21st day after application
In short: as §2

Compound | Herbicidal activity Oryza sativa [1] | Herbicidal activity Echinochloa spp. (Echinochloa spp.) | Herbicidal activity Triticum aestivum [2] | Herbicidal activity Glycine max (soybean (Glycine max) [3]) | Herbicidal activity Setaria viridis (Setaria viridis [4]) | Herbicidal activity Chenopodium album (Chenopodium album [5]) | Herbicidal activity Stellaria media (Stellaria media [6]) | Herbicidal activity Digitaria adscendens (Digitaria adscendens [7]) | Herbicidal activity Triticum aestivum [8] | Herbicidal activity Glycine max (soybean (Glycine max) [9]) | Herbicidal activity Monochoria vaginalis (Monochoria vaginalis) | Herbicidal activity Scirpus juncoides (Scirpus juncoides) | Herbicidal activity Ammannia multiflora (Ammannia multiflora) | Herbicidal activity Setaria viridis (Setaria viridis [10]) | Herbicidal activity Chenopodium album (Chenopodium album [11]) | Herbicidal activity Stellaria media (Stellaria media [12]) | Herbicidal activity Digitaria adscendens (Digitaria adscendens [13])
COC=C(Cn1nc(-c2cccc(Cl)c2)c(C)c1C)C(=O)OC [Compound 34] | 0 (herbicidal effect of not less than 0% by weight and less than 10% by weight) | 3 (herbicidal effect of not less than 50% by weight and less than 70% by weight) | 0 (herbicidal effect of not less than 0% by weight and less than 10% by weight) | 0 (herbicidal effect of not less than 0% by weight and less than 10% by weight) | 4 (herbicidal effect of not less than 70% by weight and less than 90% by weight) | 5 (herbicidal effect of not less than 90% by weight) | 4 (herbicidal effect of not less than 70% by weight and less than 90% by weight) | 5 (herbicidal effect of not less than 90% by weight) | 1 (herbicidal effect of not less than 10% by weight and less than 30% by weight) | 1 (herbicidal effect of not less than 10% by weight and less than 30% by weight) | 5 (herbicidal effect of not less than 90% by weight) | 3 (herbicidal effect of not less than 50% by weight and less than 70% by weight) | 3 (herbicidal effect of not less than 50% by weight and less than 70% by weight) | 4 (herbicidal effect of not less than 70% by weight and less than 90% by weight) | 4 (herbicidal effect of not less than 70% by weight and less than 90% by weight) | 4 (herbicidal effect of not less than 70% by weight and less than 90% by weight) | 4 (herbicidal effect of not less than 70% by weight and less than 90% by weight)
COC=C(Cn1nc(-c2cc(Cl)cc(Cl)c2)c(Cl)c1C)C(=O)OC [Compound 25] | 0 (herbicidal effect of not less than 0% by weight and less than 10% by weight) | 3 (herbicidal effect of not less than 50% by weight and less than 70% by weight) | 0 (herbicidal effect of not less than 0% by weight and less than 10% by weight) | 0 (herbicidal effect of not less than 0% by weight and less than 10% by weight) | 4 (herbicidal effect of not less than 70% by weight and less than 90% by weight) | 4 (herbicidal effect of not less than 70% by weight and less than 90% by weight) | 4 (herbicidal effect of not less than 70% by weight and less than 90% by weight) | 4 (herbicidal effect of not less than 70% by weight and less than 90% by weight) | 0 (herbicidal effect of not less than 0% by weight and less than 10% by weight) | 0 (herbicidal effect of not less than 0% by weight and less than 10% by weight) | 3 (herbicidal effect of not less than 50% by weight and less than 70% by weight) | 3 (herbicidal effect of not less than 50% by weight and less than 70% by weight) | 3 (herbicidal effect of not less than 50% by weight and less than 70% by weight) | 4 (herbicidal effect of not less than 70% by weight and less than 90% by weight) | 4 (herbicidal effect of not less than 70% by weight and less than 90% by weight) | 4 (herbicidal effect of not less than 70% by weight and less than 90% by weight) | 4 (herbicidal effect of not less than 70% by weight and less than 90% by weight)
CO/C=C(/C(=O)OC)n1nc(-c2cccc(Cl)c2)c(Cl)c1C [Control, reference compound] | 0 (herbicidal effect of not less than 0% by weight and less than 10% by weight) | 0 (herbicidal effect of not less than 0% by weight and less than 10% by weight) | 0 (herbicidal effect of not less than 0% by weight and less than 10% by weight) | 0 (herbicidal effect of not less than 0% by weight and less than 10% by weight) | 0 (herbicidal effect of not less than 0% by weight and less than 10% by weight) | 0 (herbicidal effect of not less than 0% by weight and less than 10% by weight) | 0 (herbicidal effect of not less than 0% by weight and less than 10% by weight) | 0 (herbicidal effect of not less than 0% by weight and less than 10% by weight) | 0 (herbicidal effect of not less than 0% by weight and less than 10% by weight) | 0 (herbicidal effect of not less than 0% by weight and less than 10% by weight) | 0 (herbicidal effect of not less than 0% by weight and less than 10% by weight) | 0 (herbicidal effect of not less than 0% by weight and less than 10% by weight) | 0 (herbicidal effect of not less than 0% by weight and less than 10% by weight) | 0 (herbicidal effect of not less than 0% by weight and less than 10% by weight) | 0 (herbicidal effect of not less than 0% by weight and less than 10% by weight) | 0 (herbicidal effect of not less than 0% by weight and less than 10% by weight) | 0 (herbicidal effect of not less than 0% by weight and less than 10% by weight)
CCc1c(Br)c(-c2ccccc2)nn1CC(=COC)C(=O)OC [Compound 43] | 0 (herbicidal effect of not less than 0% by weight and less than 10% by weight) | 3 (herbicidal effect of not less than 50% by weight and less than 70% by weight) | 0 (herbicidal effect of not less than 0% by weight and less than 10% by weight) | 0 (herbicidal effect of not less than 0% by weight and less than 10% by weight) | 4 (herbicidal effect of not less than 70% by weight and less than 90% by weight) | 5 (herbicidal effect of not less than 90% by weight) | 5 (herbicidal effect of not less than 90% by weight) | 4 (herbicidal effect of not less than 70% by weight and less than 90% by weight) | 0 (herbicidal effect of not less than 0% by weight and less than 10% by weight) | 0 (herbicidal effect of not less than 0% by weight and less than 10% by weight) | 3 (herbicidal effect of not less than 50% by weight and less than 70% by weight) | 4 (herbicidal effect of not less than 70% by weight and less than 90% by weight) | 3 (herbicidal effect of not less than 50% by weight and less than 70% by weight) | 4 (herbicidal effect of not less than 70% by weight and less than 90% by weight) | 4 (herbicidal effect of not less than 70% by weight and less than 90% by weight) | 4 (herbicidal effect of not less than 70% by weight and less than 90% by weight) | 4 (herbicidal effect of not less than 70% by weight and less than 90% by weight)

Reference: patent US6809065B2, “Herbicide containing substituted pyrazole derivative as active ingredient” (SDS Biotech K.K., priority 2001, dated 2004)
